Measurements: patent publication US20220227796A1, “EGFR INHIBITORS, COMPOSITIONS AND METHODS THERE OF” (Betta Pharmaceuticals Co., Ltd., priority 2019, published 2022)
pIC50: −log10 of the molar value. Read-outs that look alike come from different tables or passages of the source.

Experiments:
Format in all cases: cell-based
Ba/F3-L858R/T790M/C797S [1] = biological target: T1, Ba/F3-L858R/T790M/C797S (Homo sapiens, UniProt P00533, T790M/C797S/L858R, cells depend on it); assay: Ba/F3-L858R/T790M/C797S cells proliferation assay; settings: cell proliferation, 72 h, CellTiter Glo, read-out: BaF3 L858R/T790M/C797S IC50
T1 construct: BaF3 L858R/T790M/C797S IC50; other: cell proliferation, 72 h, CellTiter Glo; class symbols; numeric values
T1 sequence (P00533 whole entry T790M/C797S/L858R): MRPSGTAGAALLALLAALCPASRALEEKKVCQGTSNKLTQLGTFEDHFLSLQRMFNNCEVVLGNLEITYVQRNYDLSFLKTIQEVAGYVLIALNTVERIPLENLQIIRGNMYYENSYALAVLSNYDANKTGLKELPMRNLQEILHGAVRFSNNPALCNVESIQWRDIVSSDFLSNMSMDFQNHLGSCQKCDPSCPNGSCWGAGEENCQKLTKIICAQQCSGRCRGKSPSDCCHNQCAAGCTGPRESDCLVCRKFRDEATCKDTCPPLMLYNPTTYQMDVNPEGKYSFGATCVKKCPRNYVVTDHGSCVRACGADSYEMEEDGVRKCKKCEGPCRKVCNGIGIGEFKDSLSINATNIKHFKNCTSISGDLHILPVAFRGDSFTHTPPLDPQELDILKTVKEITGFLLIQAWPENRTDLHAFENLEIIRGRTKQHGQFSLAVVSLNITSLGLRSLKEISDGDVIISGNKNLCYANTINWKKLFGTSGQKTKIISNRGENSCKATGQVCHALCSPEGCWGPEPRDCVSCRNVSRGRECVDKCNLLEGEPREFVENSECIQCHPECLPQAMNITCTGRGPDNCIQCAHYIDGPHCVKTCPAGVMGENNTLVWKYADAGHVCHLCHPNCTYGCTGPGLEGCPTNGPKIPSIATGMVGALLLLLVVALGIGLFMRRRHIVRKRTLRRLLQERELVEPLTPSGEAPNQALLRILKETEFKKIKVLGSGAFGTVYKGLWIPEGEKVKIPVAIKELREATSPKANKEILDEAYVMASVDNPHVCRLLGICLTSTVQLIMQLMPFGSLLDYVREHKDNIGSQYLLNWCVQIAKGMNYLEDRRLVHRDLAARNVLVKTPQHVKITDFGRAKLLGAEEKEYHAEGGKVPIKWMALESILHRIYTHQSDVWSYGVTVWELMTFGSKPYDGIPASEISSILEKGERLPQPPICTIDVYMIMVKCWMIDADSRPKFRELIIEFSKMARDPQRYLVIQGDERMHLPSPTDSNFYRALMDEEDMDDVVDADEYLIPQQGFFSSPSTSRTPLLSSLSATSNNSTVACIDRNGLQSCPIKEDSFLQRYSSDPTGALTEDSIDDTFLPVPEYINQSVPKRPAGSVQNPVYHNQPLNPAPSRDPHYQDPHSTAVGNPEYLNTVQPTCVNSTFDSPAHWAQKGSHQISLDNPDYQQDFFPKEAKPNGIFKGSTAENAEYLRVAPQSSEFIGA
Description: (§1) a) The medium was preheated in a 37 water bath in advance.
(§2) b) Remove the cryogenic vials from the liquid nitrogen tank, quickly put it into a 37° C. water bath, and completely melt it in 1 min.
(§3) c) Transfer the cell suspension to a 15 mL centrifuge tube containing 8 mL medium, centrifuge 1000 rpm, 5 min,
(§4) d) Discard the supernatant, resuspend the cells in 1 mL medium, and transfer to a 75 cm^2 flask containing 15 mL medium, culture the cells in an incubator at 37° C., 5% CO2.
(§5) a) The medium was preheated in a 37° C.; water bath in advance.
(§6) b) Collect cell to a 15 mL centrifuged tube, centrifuge at 1000 rpm for 5 min. Discard the supernatant, count, and make the cell density at 1×10^4 cells/mL, then place it in a 37° C., 5% CO2 incubator.
(§7) b) The above compound solution was diluted 1:20 times with culture medium to prepare a 10 fold working solution;
(§8) a) Take cells in log phase growth, centrifuge at 1000 rpm for 5 min, then resuspend the cells with culture medium, then count cells;
(§9) b) Cells were seeded to 96-well cell culture plate with density at 2000 cells/well;
(§10) The blank control well was a culture medium (0.5% DMSO);
(§11) b) The cells were incubated for an additional 72 h in the incubator.
(§12) a) Remove the 96-well cell culture plate and add 50 μl of CTG reagent (CellTiter Glo kit, promega, Cat #G7573).
(§13) b) Plate was shaked for 2 min and then let it cool for 10 min at room temperature.
(§14) c) The Luminescence signal value was read using a PerkinElmer reader.
(§15) Experimental Data Analysis
(§16) Data were analyzed using GraphPad Prism 6.0 software to obtain a fitted curve of compound activity.
(§17) Y=Bottom+(Top−Bottom)/(1+10^((Log IC50−X)*Hill Slope));
(§18) The cells proliferation assay results are expressed with IC50, shown as Table 2.

Ba/F3-L858R/T790M/C797S [2] = biological target: T2, Ba/F3-L858R/T790M/C797S (Homo sapiens, UniProt P00533, T790M/C797S, cells depend on it, form not given); assay: Ba/F3-L858R/T790M/C797S cells proliferation assay; settings: summary in words of Table 2; covers both Ba/F3 triple mutant lines
T2 construct: covers both
T2 sequence (P00533 whole entry T790M/C797S/L858R, form open): as the sequence (P00533 whole entry T790M/C797S/L858R) above
Description: as §1, §2, §3, §4, §5, §6, §7, §8, §9, §10, §11, §12, §13, §14, §15, §16, §17, §18

Ba/F3-Δ19del/T790M/C797S = Ba/F3-Δ19del/T790M/C797S (Homo sapiens, UniProt P00533, T790M/C797S, cells depend on it, form not given); assay: Ba/F3-Δ19del/T790M/C797S cells proliferation assay; settings: cell proliferation, 72 h, CellTiter Glo, read-out: BaF3 Δ 19del/T790M/C797S IC50
Chain of Ba/F3-Δ19del/T790M/C797S (P00533 with tags, fused parts or gaps DEL746-750/T790M/C797S, form open): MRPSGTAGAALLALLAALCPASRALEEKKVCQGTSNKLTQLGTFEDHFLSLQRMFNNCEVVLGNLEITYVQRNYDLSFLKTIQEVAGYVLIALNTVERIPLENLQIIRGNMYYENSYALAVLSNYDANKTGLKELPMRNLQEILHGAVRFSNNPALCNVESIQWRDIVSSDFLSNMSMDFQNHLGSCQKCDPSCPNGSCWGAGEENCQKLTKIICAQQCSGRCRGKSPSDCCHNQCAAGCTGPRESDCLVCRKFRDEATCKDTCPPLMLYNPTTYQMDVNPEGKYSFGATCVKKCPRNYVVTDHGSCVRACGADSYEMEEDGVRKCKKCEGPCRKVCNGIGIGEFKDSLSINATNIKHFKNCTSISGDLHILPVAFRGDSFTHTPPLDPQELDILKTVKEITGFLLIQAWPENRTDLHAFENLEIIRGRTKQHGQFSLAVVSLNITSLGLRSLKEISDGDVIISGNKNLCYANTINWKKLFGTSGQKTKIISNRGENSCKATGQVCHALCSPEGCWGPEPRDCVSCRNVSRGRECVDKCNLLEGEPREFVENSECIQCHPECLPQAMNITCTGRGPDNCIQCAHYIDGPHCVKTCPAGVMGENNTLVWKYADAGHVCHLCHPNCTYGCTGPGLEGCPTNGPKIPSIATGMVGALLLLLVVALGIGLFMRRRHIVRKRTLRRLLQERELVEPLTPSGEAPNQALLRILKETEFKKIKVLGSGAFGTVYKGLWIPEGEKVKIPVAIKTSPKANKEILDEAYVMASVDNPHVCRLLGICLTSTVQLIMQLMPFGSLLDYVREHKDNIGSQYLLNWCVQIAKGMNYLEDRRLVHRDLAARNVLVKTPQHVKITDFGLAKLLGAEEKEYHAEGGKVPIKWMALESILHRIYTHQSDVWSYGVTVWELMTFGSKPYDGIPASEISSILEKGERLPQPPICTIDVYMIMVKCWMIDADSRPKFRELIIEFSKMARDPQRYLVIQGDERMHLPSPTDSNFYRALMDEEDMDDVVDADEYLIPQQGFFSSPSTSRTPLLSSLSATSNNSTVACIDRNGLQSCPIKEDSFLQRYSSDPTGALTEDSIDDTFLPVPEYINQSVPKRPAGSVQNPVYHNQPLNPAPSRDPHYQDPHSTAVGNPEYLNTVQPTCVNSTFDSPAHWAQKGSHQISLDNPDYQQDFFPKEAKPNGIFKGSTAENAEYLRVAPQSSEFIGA
Description: as §1, §2, §3, §4, §5, §6, §7, §8, §9, §10, §11, §12, §13, §14, §15, §16, §17, §18

H1975(L858R/T790M) = assay: H1975 cells proliferation assay; settings: for pIC50: Homo sapiens, NCI-H1975, cell proliferation, 72 h, CellTiter Glo, numeric values, read-out: H1975 IC50; for inhibition of double mutant (L858R/T790M): summary in words of Table 2
Method in brief: (§19)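 HCC827 (2500 cells/well) and H1975 (2000 cells/well) cells seeded in 96-well plates and exposed to compounds for 72 h at 37° C, 5% CO2; 0.5% DMSO medium as blank. Viability by CellTiter-Glo luminescence; IC50 from four-parameter logistic fit.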

HCC827(Δ19del) = assay: HCC827 cells proliferation assay; settings: Homo sapiens, HCC827; cell proliferation, 72 h, CellTiter Glo; numeric values; read-out: HCC827 IC50
Method in brief: as §19

GI50 (Ba/F3-L858R/T790M/C797S [1]; numeric values) [nM] | inhibition of triple mutant (L858R/T790M/C797S or Δ19del/T790M/C797S) (Ba/F3-L858R/T790M/C797S [2]) | GI50 (Ba/F3-Δ19del/T790M/C797S; numeric values) [nM] | pIC50 (H1975(L858R/T790M)) | pIC50 (HCC827(Δ19del)) | GI50 (Ba/F3-L858R/T790M/C797S [1]; class symbols) [nM] | GI50 (Ba/F3-Δ19del/T790M/C797S; class symbols) [nM] | SMILES | inhibition of double mutant (L858R/T790M) (H1975(L858R/T790M))
12.9 | higher inhibition | 5.7 | 7.08 |  |  |  | CCc1cc(Nc2ncc(Br)c(Nc3ccc4nccnc4c3P(C)(C)=O)n2)c(OC)cc1N1CCC(N2CCN(C)CC2)CC1 [Comparative compound D, (6-((5-bromo-2-((5-ethyl-2-methoxy-4-(4-(4-methylpiperazin-1-yl)piperidin-1-yl)phenyl)amino)pyrimidin-4-yl)amino)quinoxalin-5-yl)dimethylphosphine oxide, reference compound] | relatively low inhibition
 | higher inhibition |  | 7.21 | 7.05 | < 10 | < 10 | CCN1CC2(C1)CN(c1ccc(Nc3ncc(Cl)c(Nc4ccccc4P(C)(C)=O)n3)cc1C)C2 [Comparative compound A, (2-((5-chloro-2-((4-(6-ethyl-2,6-diazaspiro[3.3]heptan-2-yl)-3-methylphenyl)amino)pyrimidin-4-yl)amino)phenyl)dimethylphosphine oxide, reference compound] | relatively low inhibition
16.8 | higher inhibition | 9.6 | 7.15 |  |  |  | COc1cc(N2CCC(N3CCN(C)CC3)CC2)c(C)cc1Nc1ncc(Br)c(Nc2ccc3nccnc3c2P(C)(C)=O)n1 [Comparative compound C, (6-((5-bromo-2-((2-methoxy-5-methyl-4-(4-(4-methylpiperazin-1-yl)piperidin-1-yl)phenyl)amino)pyrimidin-4-yl)amino)quinoxalin-5-yl)dimethylphosphine oxide, reference compound] | relatively low inhibition
